Measured values from the kinase profiling compilation of Christmann-Franck et al. (2016).

Key:
Assay in all cases: KINOMEscan competition binding
Details in all cases: compound 10.0 µM
[1] = tested on: FLT3 (human), P36888 [K663Q]
DDR1 (human) = DDR1 (human) (UniProt Q08345)
CDK4 CCND3 (human) = CDK4 CCND3 (human) (UniProt P11802+P30281)
YSK4 (human) = YSK4 (human) (UniProt Q56UN5)
[2] = tested on: PIK3CA (human), P42336 [Q546K]
DSTYK (human) = DSTYK (human) (UniProt Q6XUX3)
STK39 (human) = STK39 (human) (UniProt Q9UEW8)
MAST1 (human) = MAST1 (human) (UniProt Q9Y2H9)
DYRK2 (human) = DYRK2 (human) (UniProt Q92630)
NEK3 (human) = NEK3 (human) (UniProt P51956)
PIP4K2C (human) = PIP4K2C (human) (UniProt Q8TBX8)
[3] = tested on: PIK3CA (human), P42336 [C420R]
PIK3CA (human), P42336 [C420R], sequence (P42336 whole entry C420R, looked up): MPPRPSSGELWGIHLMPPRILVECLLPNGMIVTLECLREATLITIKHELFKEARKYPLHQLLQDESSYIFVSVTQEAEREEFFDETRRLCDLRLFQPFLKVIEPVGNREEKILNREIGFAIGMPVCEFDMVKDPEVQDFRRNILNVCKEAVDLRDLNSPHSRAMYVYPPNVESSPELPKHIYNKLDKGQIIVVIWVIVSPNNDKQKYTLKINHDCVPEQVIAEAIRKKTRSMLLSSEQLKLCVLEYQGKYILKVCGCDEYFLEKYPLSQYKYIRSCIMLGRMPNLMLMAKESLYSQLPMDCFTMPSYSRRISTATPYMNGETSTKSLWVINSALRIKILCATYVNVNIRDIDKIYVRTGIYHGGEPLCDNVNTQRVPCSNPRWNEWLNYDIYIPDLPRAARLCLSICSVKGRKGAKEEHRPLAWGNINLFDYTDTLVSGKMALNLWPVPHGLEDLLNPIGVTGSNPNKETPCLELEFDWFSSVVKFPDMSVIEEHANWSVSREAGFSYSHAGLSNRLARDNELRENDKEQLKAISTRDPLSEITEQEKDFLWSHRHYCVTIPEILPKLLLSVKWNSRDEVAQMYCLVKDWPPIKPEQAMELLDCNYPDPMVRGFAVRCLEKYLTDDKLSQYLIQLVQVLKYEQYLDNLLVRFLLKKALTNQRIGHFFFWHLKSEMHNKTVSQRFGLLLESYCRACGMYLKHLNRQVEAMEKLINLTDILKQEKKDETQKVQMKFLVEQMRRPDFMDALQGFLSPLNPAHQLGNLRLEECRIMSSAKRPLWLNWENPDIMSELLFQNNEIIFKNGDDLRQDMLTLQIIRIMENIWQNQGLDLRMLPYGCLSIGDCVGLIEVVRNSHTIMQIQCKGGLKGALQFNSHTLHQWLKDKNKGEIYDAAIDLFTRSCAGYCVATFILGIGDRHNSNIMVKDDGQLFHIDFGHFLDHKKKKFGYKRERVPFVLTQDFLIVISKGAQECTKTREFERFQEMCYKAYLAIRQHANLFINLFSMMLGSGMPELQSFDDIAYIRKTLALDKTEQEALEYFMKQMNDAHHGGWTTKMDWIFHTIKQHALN

BRAF (human) = BRAF (human) (UniProt P15056)
GRK7 (human) = GRK7 (human) (UniProt Q8WTQ7)
GRK7 (human), sequence (Q8WTQ7 whole entry, looked up): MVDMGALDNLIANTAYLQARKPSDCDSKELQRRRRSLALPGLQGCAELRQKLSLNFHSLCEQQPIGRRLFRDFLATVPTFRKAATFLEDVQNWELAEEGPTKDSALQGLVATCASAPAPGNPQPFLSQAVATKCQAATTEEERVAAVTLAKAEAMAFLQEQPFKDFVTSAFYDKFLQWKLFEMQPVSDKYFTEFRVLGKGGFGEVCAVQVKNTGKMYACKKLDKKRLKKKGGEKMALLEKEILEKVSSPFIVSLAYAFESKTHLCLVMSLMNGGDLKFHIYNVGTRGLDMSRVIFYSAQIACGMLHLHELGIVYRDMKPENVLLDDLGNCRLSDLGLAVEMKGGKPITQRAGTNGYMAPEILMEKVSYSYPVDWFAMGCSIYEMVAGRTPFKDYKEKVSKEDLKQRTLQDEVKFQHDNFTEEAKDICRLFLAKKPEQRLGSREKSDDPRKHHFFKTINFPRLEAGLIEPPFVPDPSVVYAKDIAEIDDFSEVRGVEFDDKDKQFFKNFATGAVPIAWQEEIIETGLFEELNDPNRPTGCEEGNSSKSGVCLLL

[4] = tested on: PIK3CA (human), P42336 [E545K]
CRK2 (P.falciparum) = CRK2 (P.falciparum) (UniProt P61075)
CDKL3 (human) = CDKL3 (human) (UniProt Q8IVW4)
CDKL3 (human), sequence (Q8IVW4 whole entry, looked up): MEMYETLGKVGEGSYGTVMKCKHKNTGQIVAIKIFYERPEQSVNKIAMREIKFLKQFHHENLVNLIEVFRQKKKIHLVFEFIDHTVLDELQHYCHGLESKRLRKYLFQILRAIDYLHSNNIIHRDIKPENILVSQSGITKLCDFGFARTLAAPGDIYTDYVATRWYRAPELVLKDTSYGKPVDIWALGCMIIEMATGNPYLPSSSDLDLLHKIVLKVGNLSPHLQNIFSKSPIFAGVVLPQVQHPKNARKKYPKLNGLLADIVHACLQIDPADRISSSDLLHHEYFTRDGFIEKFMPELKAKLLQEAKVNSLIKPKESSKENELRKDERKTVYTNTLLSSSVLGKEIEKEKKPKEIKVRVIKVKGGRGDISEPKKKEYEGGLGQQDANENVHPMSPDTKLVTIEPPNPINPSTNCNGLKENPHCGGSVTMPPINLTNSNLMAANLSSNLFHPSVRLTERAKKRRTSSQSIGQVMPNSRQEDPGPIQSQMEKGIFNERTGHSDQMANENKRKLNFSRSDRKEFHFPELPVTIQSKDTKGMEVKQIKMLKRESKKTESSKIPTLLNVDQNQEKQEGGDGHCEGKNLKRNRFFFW

NIM1 (human) = NIM1 (human) (UniProt Q8IY84)
HIPK4 (human) = HIPK4 (human) (UniProt Q8NE63)
EGFR (human) = EGFR (human) (UniProt P00533)
RPS6KB1 (human) = RPS6KB1 (human) (UniProt P23443)
[5] = tested on: EGFR (human), P00533 [G719S]
KIT (human) = KIT (human) (UniProt P10721)
PIK3C2G (human) = PIK3C2G (human) (UniProt O75747)
SBK1 (human) = SBK1 (human) (UniProt Q52WX2)
[6] = tested on: PIK3CA (human), P42336 [H1047Y]
MAP3K13 (human) = MAP3K13 (human) (UniProt O43283)
PIP5K1C (human) = PIP5K1C (human) (UniProt O60331)
CDK13 (human) = CDK13 (human) (UniProt Q14004)
SGK3 (human) = SGK3 (human) (UniProt Q96BR1)
PIK3CG (human) = PIK3CG (human) (UniProt P48736)
ERBB3 (human) = ERBB3 (human) (UniProt P21860)
CPK1 (P.falciparum) = tested on: CPK1 (P.falciparum)
ERN1 (human) = ERN1 (human) (UniProt O75460)
ICK (human) = ICK (human) (UniProt Q9UPZ9)
ICK (human), sequence (Q9UPZ9 whole entry, looked up): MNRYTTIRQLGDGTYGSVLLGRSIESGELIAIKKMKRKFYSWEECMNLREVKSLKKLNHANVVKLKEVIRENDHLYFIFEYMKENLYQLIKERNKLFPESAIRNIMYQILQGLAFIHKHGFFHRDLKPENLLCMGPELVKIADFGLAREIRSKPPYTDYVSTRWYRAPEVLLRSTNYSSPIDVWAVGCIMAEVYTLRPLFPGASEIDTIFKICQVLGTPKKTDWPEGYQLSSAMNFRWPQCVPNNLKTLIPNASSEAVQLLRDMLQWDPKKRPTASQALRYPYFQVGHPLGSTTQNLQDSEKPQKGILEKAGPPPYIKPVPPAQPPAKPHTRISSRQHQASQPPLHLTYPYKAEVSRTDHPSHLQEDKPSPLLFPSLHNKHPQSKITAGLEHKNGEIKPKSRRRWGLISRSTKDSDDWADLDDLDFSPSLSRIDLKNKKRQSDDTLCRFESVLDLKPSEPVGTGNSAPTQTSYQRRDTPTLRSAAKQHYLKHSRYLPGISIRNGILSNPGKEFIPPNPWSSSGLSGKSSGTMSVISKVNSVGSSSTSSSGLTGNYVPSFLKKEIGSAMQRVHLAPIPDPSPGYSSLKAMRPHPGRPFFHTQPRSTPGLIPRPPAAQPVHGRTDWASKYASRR

OXSR1 (human) = OXSR1 (human) (UniProt O95747)
OXSR1 (human), sequence (O95747 whole entry, looked up): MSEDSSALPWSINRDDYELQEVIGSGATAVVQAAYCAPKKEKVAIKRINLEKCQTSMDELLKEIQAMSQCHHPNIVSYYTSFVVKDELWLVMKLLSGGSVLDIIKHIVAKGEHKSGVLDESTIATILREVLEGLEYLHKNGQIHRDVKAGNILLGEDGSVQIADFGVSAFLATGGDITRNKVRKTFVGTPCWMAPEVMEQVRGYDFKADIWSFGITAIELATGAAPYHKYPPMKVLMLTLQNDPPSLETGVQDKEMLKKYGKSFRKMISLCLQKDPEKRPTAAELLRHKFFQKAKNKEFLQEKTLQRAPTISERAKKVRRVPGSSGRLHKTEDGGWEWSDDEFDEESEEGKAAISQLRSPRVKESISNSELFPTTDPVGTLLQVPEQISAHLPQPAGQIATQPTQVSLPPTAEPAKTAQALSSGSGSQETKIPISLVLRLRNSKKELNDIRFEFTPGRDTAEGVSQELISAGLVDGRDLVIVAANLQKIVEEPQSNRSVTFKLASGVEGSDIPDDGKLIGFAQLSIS

DYRK1A (human) = DYRK1A (human) (UniProt Q13627)
[7] = tested on: EGFR (human), P00533 [746-750 del]
TIE1 (human) = TIE1 (human) (UniProt P35590)
PRKCI (human) = PRKCI (human) (UniProt P41743)

CDK4 CCND3 (human), sequence (P11802 whole entry, looked up): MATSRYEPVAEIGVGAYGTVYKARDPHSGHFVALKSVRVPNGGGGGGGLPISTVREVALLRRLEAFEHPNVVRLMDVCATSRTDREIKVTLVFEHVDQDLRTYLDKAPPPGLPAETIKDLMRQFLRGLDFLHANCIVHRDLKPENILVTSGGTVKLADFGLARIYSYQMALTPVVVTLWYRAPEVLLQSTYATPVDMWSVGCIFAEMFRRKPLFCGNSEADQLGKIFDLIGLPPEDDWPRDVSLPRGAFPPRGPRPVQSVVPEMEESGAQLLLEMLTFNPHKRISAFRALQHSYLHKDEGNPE
CDK4 CCND3 (human), sequence (P30281 whole entry, looked up): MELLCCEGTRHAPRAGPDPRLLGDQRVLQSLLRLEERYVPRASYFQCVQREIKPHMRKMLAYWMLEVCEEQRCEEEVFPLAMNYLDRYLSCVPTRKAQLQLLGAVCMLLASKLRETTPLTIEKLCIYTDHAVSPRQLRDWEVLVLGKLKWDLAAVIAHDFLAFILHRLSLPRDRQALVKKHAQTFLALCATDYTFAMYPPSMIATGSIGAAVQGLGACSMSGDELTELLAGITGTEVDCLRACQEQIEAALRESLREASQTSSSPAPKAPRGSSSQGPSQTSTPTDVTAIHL
DSTYK (human), sequence (Q6XUX3 whole entry, looked up): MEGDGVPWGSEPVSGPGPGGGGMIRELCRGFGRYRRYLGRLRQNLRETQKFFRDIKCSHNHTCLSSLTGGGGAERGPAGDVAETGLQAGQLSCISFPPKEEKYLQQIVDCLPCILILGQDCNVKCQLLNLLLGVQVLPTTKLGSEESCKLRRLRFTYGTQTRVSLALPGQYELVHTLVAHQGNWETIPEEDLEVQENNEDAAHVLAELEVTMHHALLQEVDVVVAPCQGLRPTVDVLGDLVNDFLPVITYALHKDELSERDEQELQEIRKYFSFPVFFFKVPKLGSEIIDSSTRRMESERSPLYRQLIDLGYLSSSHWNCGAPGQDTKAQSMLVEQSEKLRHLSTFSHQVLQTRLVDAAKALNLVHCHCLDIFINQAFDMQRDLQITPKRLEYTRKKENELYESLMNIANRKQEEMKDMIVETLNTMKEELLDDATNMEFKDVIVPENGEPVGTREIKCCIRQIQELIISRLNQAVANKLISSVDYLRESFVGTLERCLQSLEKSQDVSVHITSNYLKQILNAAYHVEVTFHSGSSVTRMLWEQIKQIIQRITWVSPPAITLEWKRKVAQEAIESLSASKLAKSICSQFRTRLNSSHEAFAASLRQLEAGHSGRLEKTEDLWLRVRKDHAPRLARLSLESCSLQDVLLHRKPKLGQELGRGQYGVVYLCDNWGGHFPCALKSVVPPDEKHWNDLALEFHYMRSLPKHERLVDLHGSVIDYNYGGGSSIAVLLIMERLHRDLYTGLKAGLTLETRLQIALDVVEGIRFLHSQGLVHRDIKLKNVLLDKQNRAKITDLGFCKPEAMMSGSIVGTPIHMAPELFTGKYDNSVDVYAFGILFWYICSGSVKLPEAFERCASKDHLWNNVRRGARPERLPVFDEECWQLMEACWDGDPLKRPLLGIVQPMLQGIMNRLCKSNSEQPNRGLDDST

Compound: C[C@@H](Oc1cc(-n2cnc3ccc(CN4CCN(C)CC4)cc32)sc1C(N)=O)c1ccccc1C(F)(F)F
- kinase still bound, per cent of control [1]: 14%
- kinase still bound, per cent of control (DDR1 (human)): 100%
- kinase still bound, per cent of control (CDK4 CCND3 (human)): 70%
- kinase still bound, per cent of control (YSK4 (human)): 12%
- kinase still bound, per cent of control [2]: 29%
- kinase still bound, per cent of control (DSTYK (human)): 34%
- kinase still bound, per cent of control (STK39 (human)): 11%
- kinase still bound, per cent of control (MAST1 (human)): 3.1%
- kinase still bound, per cent of control (DYRK2 (human)): 54%
- kinase still bound, per cent of control (NEK3 (human)): 100%
- kinase still bound, per cent of control (PIP4K2C (human)): 62%
- kinase still bound, per cent of control [3]: 55%
- kinase still bound, per cent of control (BRAF (human)): 79%
- kinase still bound, per cent of control (GRK7 (human)): 33%
- kinase still bound, per cent of control [4]: 71%
- kinase still bound, per cent of control (CRK2 (P.falciparum)): 100%
- kinase still bound, per cent of control (CDKL3 (human)): 100%
- kinase still bound, per cent of control (NIM1 (human)): 30%
- kinase still bound, per cent of control (HIPK4 (human)): 36%
- kinase still bound, per cent of control (EGFR (human)): 87%
- kinase still bound, per cent of control (RPS6KB1 (human)): 52%
- kinase still bound, per cent of control [5]: 100%
- kinase still bound, per cent of control (KIT (human)): 47%
- kinase still bound, per cent of control (PIK3C2G (human)): 40%
- kinase still bound, per cent of control (SBK1 (human)): 55%
- kinase still bound, per cent of control [6]: 32%
- kinase still bound, per cent of control (MAP3K13 (human)): 87%
- kinase still bound, per cent of control (PIP5K1C (human)): 18%
- kinase still bound, per cent of control (CDK13 (human)): 26%
- kinase still bound, per cent of control (SGK3 (human)): 28%
- kinase still bound, per cent of control (PIK3CG (human)): 6.4%
- kinase still bound, per cent of control (ERBB3 (human)): 100%
- kinase still bound, per cent of control (CPK1 (P.falciparum)): 62%
- kinase still bound, per cent of control (ERN1 (human)): 34%
- kinase still bound, per cent of control (ICK (human)): 85%
- kinase still bound, per cent of control (OXSR1 (human)): 98%
- kinase still bound, per cent of control (DYRK1A (human)): 100%
- kinase still bound, per cent of control [7]: 100%

Compound: CCC(=O)N1CCN(c2ccc(-n3c(=O)ccc4cnc5ccc(-c6cnc7ccccc7c6)cc5c43)cc2C(F)(F)F)CC1
- kinase still bound, per cent of control (TIE1 (human)): 100%
- kinase still bound, per cent of control [1]: 23%
- kinase still bound, per cent of control (DDR1 (human)): 100%
- kinase still bound, per cent of control (CDK4 CCND3 (human)): 87%
- kinase still bound, per cent of control (YSK4 (human)): 38%
- kinase still bound, per cent of control [2]: 6.8%
- kinase still bound, per cent of control (DSTYK (human)): 28%
- kinase still bound, per cent of control (STK39 (human)): 100%
- kinase still bound, per cent of control (MAST1 (human)): 93%
- kinase still bound, per cent of control (DYRK2 (human)): 86%
- kinase still bound, per cent of control (NEK3 (human)): 100%
- kinase still bound, per cent of control (PIP4K2C (human)): 58%
- kinase still bound, per cent of control [3]: 0.7%
- kinase still bound, per cent of control (BRAF (human)): 59%
- kinase still bound, per cent of control (GRK7 (human)): 100%
- kinase still bound, per cent of control [4]: 0.6%
- kinase still bound, per cent of control (CRK2 (P.falciparum)): 97%
- kinase still bound, per cent of control (CDKL3 (human)): 92%
- kinase still bound, per cent of control (NIM1 (human)): 84%
- kinase still bound, per cent of control (HIPK4 (human)): 4.6%
- kinase still bound, per cent of control (EGFR (human)): 85%
- kinase still bound, per cent of control (PRKCI (human)): 85%
- kinase still bound, per cent of control (PIK3C2G (human)): 11%
- kinase still bound, per cent of control (SBK1 (human)): 88%
- kinase still bound, per cent of control (MAP3K13 (human)): 100%
- kinase still bound, per cent of control (PIP5K1C (human)): 80%
- kinase still bound, per cent of control (CDK13 (human)): 80%
- kinase still bound, per cent of control (SGK3 (human)): 100%
- kinase still bound, per cent of control (ERBB3 (human)): 44%
- kinase still bound, per cent of control (CPK1 (P.falciparum)): 36%
- kinase still bound, per cent of control (ERN1 (human)): 100%
- kinase still bound, per cent of control (ICK (human)): 100%
- kinase still bound, per cent of control (OXSR1 (human)): 100%
- kinase still bound, per cent of control (DYRK1A (human)): 71%

Compound: CCCS(=O)(=O)Nc1ccc(F)c(C(=O)c2c[nH]c3ncc(-c4ccc(Cl)cc4)cc23)c1F
- kinase still bound, per cent of control (TIE1 (human)): 38%
- kinase still bound, per cent of control (CDK4 CCND3 (human)): 82%
- kinase still bound, per cent of control (YSK4 (human)): 53%
- kinase still bound, per cent of control [2]: 86%
- kinase still bound, per cent of control (DSTYK (human)): 22%
- kinase still bound, per cent of control (STK39 (human)): 100%
- kinase still bound, per cent of control (MAST1 (human)): 100%
- kinase still bound, per cent of control (DYRK2 (human)): 100%
- kinase still bound, per cent of control (PIP4K2C (human)): 100%
- kinase still bound, per cent of control [3]: 100%
- kinase still bound, per cent of control (BRAF (human)): 0%
- kinase still bound, per cent of control (GRK7 (human)): 93%
- kinase still bound, per cent of control [4]: 100%
- kinase still bound, per cent of control (CRK2 (P.falciparum)): 97%
- kinase still bound, per cent of control (CDKL3 (human)): 100%
- kinase still bound, per cent of control (NIM1 (human)): 100%
- kinase still bound, per cent of control (EGFR (human)): 70%
- kinase still bound, per cent of control (RPS6KB1 (human)): 86%
- kinase still bound, per cent of control [5]: 50%
- kinase still bound, per cent of control (PRKCI (human)): 100%
- kinase still bound, per cent of control (KIT (human)): 0.15%
- kinase still bound, per cent of control (PIK3C2G (human)): 62%
- kinase still bound, per cent of control (SBK1 (human)): 92%
- kinase still bound, per cent of control [6]: 88%
- kinase still bound, per cent of control (MAP3K13 (human)): 100%
- kinase still bound, per cent of control (PIP5K1C (human)): 44%
- kinase still bound, per cent of control (CDK13 (human)): 100%
- kinase still bound, per cent of control (SGK3 (human)): 71%
- kinase still bound, per cent of control (PIK3CG (human)): 19%
- kinase still bound, per cent of control (ERBB3 (human)): 73%
- kinase still bound, per cent of control (CPK1 (P.falciparum)): 0%
- kinase still bound, per cent of control (ERN1 (human)): 82%
- kinase still bound, per cent of control (ICK (human)): 73%
- kinase still bound, per cent of control (OXSR1 (human)): 95%
- kinase still bound, per cent of control (DYRK1A (human)): 100%
